Two molecules from article PMC13168289, “Potent acridone antimalarial against all three life stages of Plasmodium” (Nature Communications, 2026) can be followed below.

Values joined by “and” are separate entries in the source; they are usually repeats but may differ in a detail not shown here. Identical values can stand only once. Like-named read-outs stand apart in the source and are kept apart here.

For test [1], the system named is P. cynomolgi hypnozoites and schizonts. As to the kind of experiment: in vitro liver-stage P. cynomolgi assay in primary rhesus hepatocytes. Type of test: cell-based, Plasmodium cynomolgi. The method, then: The liver-stage P. cynomolgi assay was designed to identify anti-hypnozoite drugs utilizing a 384-well in vitro culture system[31],[37]. Briefly, cryopreserved primary simian hepatocytes (donor lots XGB, OQB, and QHO: BioIVT, Inc.) were seeded in collagen-coated 384-well plates and infected with P. cynomolgi bastianellii (B strain) sporozoites dissected from infected Anopheles dirus mosquitoes. Test compounds were solubilized in 100% DMSO and serially diluted 2-fold to generate up to a 12-point dose-response curve, maintaining a final DMSO concentration of 0.1% across all wells. Two distinct treatment modes were evaluated. For the prophylactic assay, to assess the prevention of infection, compound exposure began 1-hour post-infection with daily media changes on Days 1 and 2. For the radical cure assay, to assess activity against established liver forms, drugs were administered daily from Day 4 through Day 7 post-infection. […] For readout on Day 8, plates were fixed and stained via immunofluorescence to visualize parasite forms (hypnozoites and schizonts) and hepatocyte nuclei, and images were acquired using an Operetta CLS high-content imaging system (PerkinElmer). Host hepatocyte viability was measured in parallel to determine compound toxicity. Parasite forms were automatically quantified using Harmony 4.9 software, and percent inhibition and toxicity were calculated relative to in-plate DMSO vehicle controls. IC50 and CC50 (half-maximal cytotoxic concentrations) were determined by fitting dose-response data to a four-parameter logistic (variable slope) model using a custom Python script incorporating a grid search algorithm.

Test [2] concerns P. falciparum mutant T111 lines. Kind of test: drug susceptibility of T111-selected cyt b mutant lines. Type of test: cell-based, Plasmodium falciparum. Here is the method:
DNA extractions were performed on clonal parasites using the QIAamp DNA extraction kit (QIAGEN Inc, Valencia, CA) or ZYMO Quick gDNA Miniprep kit (Zymo Research Corp, Irvine, CA). For sequencing of the open reading frame of pfcytb, PCR was performed with genomic DNA using forward and reverse flanking primers for cyt b primer 1: 5’-[…]-3’ and primer 2: 5’-[…]-3’. PCR products were subjected to enzymatic cleanup with ExoSAP-IT (Thermo Fisher Scientific) and sent for Sanger sequencing (Eurofins Genomics, Louisville, KY) with PCR primer 2 paired with an internal forward primer: 5’-[…]-3’ and an internal reverse primer: 5’-[…]-3’. Sequences were assembled using 4Peaks software (Nucleobytes, Amsterdam, Netherlands) and aligned with Clustal Omega (EMBL-EBI). For sequencing of the open reading frame of pfdhodh, PCR was performed with genomic DNA using forward primer: 5’-[…]-3’ and reverse primer: 5’-[…]-3’. PCR products were prepared for Sanger sequencing and analyzed as described above, except using two forward primers: 5’-[…]-3’ and 5’-[…]-3’ and with two reverse primers: 5’-[…]-3’ and 5’-[…]-3’.
(§1) Drug susceptibility assays against P. falciparum strains were performed using a SYBR Green based assay. D6 and Dd2 were obtained from MR4. Tm90-C2B was obtained from WRAIR. Dd2-D1^I22L and ELQ-300 were obtained from VAPORHCS. D10yDHODH was obtained as a courtesy from Dr. Akhil Vaidya at Drexel University. P. yoelii ATV^r and ELQ-300^r clones were obtained from VAPORHCS.

Test [3] concerns P. falciparum D6, Dd2, Tm90-C2B, Dd2-D1^I22L, D10yDHODH. As to the kind of experiment: microbe, parasite or virus in culture. It counts as cell-based, Plasmodium falciparum. Here is the method:
as §1

The subject of test [4] is P. yoelii wild type, ATV^r and ELQ-300^r clones. Kind of test: 4-day suppression model with ATV- and ELQ-300-resistant clones. Type of test: in vivo, P. yoelii in CF1 mice. The settings on record: (95% CI).
Excerpt: Animals were housed at the VAPORHCS in Thoren Maxi-Miser microisolator cages (78 sq. in. floor space) with a maximum density of five females or four males per cage. Cages were maintained on a 12-h light/dark cycle and provided with autoclaved nesting materials (nestlets) for environmental enrichment. All mice had ad libitum access to food and water. Four- to five-week-old female and male outbred CF1 mice (Charles River Laboratories, Raleigh, NC, USA) were randomly assigned to treatment and control groups using a simple randomization procedure (e.g., computer-generated random numbers) to ensure balanced distribution of baseline body weights and starting parasitemia levels across all cohorts. Groups of four mice (n = 4, mean body weight of each group was ~30 g) were infected intravenously with 3.5 × 10^4 P. yoelii (Kenya strain, MRA-428) from a donor animal. Drug administration commenced the day after the animals were inoculated (Day 1). The test drug or the drug combination was dissolved in PEG-400 and administered by oral gavage once daily for 4 successive days in the 4-day suppression model, but only once on Day 1 in the single-dose cure model. Blood was collected via the tail vein with the aid of a syringe needle on Day 5 and then at weekly intervals through Day 28. Blood films were Giemsa-stained and examined microscopically to determine the level of parasitemia. All mice were observed daily to assess clinical signs. Animals with observable parasitemia following the experiments were euthanized; animals cleared of parasitemia from their bloodstream were observed daily with assessment of parasitemia performed weekly until Day 28, at which point, the animal(s) were scored as cured of the infection and then humanely euthanized. All treated mice with a negative smear on Day 28 were considered cured (100% protection).
as §1

Turning to `O=C1C(O)=C([C@H]2CC[C@H](c3ccc(Cl)cc3)CC2)C(=O)c2ccccc21` [ATV, atovaquone], the IC50 in test [1] (Plasmodium cynomolgi, Hepatocyte, in Macaca mulatta, prophylactic mode, hypnozoite, read-out: inhibition IC50) is > 1200 nM; in test [1] (Plasmodium cynomolgi, Hepatocyte, in Macaca mulatta, prophylactic mode, schizont, read-out: inhibition IC50) it was 9.3 nM; in test [1] (Plasmodium cynomolgi, Hepatocyte, in Macaca mulatta, radical cure mode, hypnozoite, read-out: inhibition IC50), 2460 nM; in test [1] (Plasmodium cynomolgi, Hepatocyte, in Macaca mulatta, radical cure mode, schizont, read-out: inhibition IC50), 2250 nM; in test [1] (Plasmodium cynomolgi, Hepatocyte, in Macaca mulatta, summary in response to reviewers, read-out: IC50 values against hypnozoites), > 2000 nM; in test [2] (Plasmodium falciparum, DD2, read-out: inhibition IC50 vs P. falciparum, Dd2), 0.44 ± 0.052 nM. For the same molecule, the IC50 was determined as 4.7 ± 0.44 nM in test [2] (Plasmodium falciparum, DD2, read-out: inhibition IC50 vs P. falciparum, Dd2-A^131S-140I-259L); 15 ± 2 nM in test [2] (Plasmodium falciparum, DD2, read-out: inhibition IC50 vs P. falciparum, Dd2-A^131S-140I-259L-264L); 10 ± 1.4 nM in test [2] (Plasmodium falciparum, DD2, read-out: inhibition IC50 vs P. falciparum, Dd2-B^87V-131S-140I-259L); 11 ± 1.8 nM in test [2] (Plasmodium falciparum, DD2, read-out: inhibition IC50 vs P. falciparum, Dd2-B^131S-140I-259L-264L); 15 ± 0.46 nM in test [2] (Plasmodium falciparum, DD2, read-out: inhibition IC50 vs P. falciparum, Dd2-C0^119L-131S-259L (pfdhodh mutation)); 25 ± 7.2 nM in test [2] (Plasmodium falciparum, DD2, read-out: inhibition IC50 vs P. falciparum, Dd2-C1^131S-140I-259L (pfdhodh mutation)). Also, the IC50 is 0.34 ± 0.049 nM in test [2] (Plasmodium falciparum, DD2, read-out: inhibition IC50 vs P. falciparum, Dd2^131S); 1.5 ± 0.17 nM in test [2] (Plasmodium falciparum, DD2, read-out: inhibition IC50 vs P. falciparum, Dd2^131S-259L); 6.6 ± 1.9 nM in test [2] (Plasmodium falciparum, DD2, read-out: inhibition IC50 vs P. falciparum, Dd2^259L); 0.073 ± 0.01 nM in test [3] (Plasmodium falciparum, read-out: in vitro IC50 vs P. falciparum, D6); > 2500 nM in test [3] (Plasmodium falciparum, read-out: in vitro IC50 vs P. falciparum, D10yDHODH); 0.13 ± 0.012 nM in test [3] (Plasmodium falciparum, read-out: in vitro IC50 vs P. falciparum, Dd2). Besides, the IC50 was 0.007 ± 0.0025 nM in test [3] (Plasmodium falciparum, read-out: in vitro IC50 vs P. falciparum, Dd2-D1^I22L (ELQ-300-resistant)) and 8538 ± 65 nM in test [3] (Plasmodium falciparum, read-out: in vitro IC50 vs P. falciparum, Tm90-C2B (cyt b Y268S, ATV-resistant)). Besides, the ED50 in test [4] (P. yoelii ATVrY268S) was 15.3 (9.9–24) mg/kg/day; in test [4] (P. yoelii ELQ-300rI22L), 0.068 (0.053–0.087) mg/kg/day; in test [4] (P. yoelii wild type) it was 0.064 (0.049–0.085) mg/kg/day.
As for `O=c1c2ccc(Oc3ccc(OC(F)(F)F)cc3)cc2[nH]c2cc(Cl)cc(F)c12` [T111], the IC50 in test [1] (prophylactic mode, hypnozoite, read-out: inhibition IC50) was found to be 93 nM; in test [1] (prophylactic mode, schizont, read-out: inhibition IC50), 18 nM; in test [1] (radical cure mode, hypnozoite, read-out: inhibition IC50) it was 500 nM; in test [1] (radical cure mode, schizont, read-out: inhibition IC50) it was 280 nM; in test [2] (Dd2-A^131S-140I-259L-264L, read-out: inhibition IC50 vs P. falciparum) it was 98 ± 12 nM; in test [2] (Dd2-A^131S-140I-259L, read-out: inhibition IC50 vs P. falciparum), 74 ± 5.1 nM. In addition, the IC50 turned out to be 129 ± 6.3 nM in test [2] (Dd2-B^87V-131S-140I-259L, read-out: inhibition IC50 vs P. falciparum); 114 ± 13 nM in test [2] (Dd2-B^131S-140I-259L-264L, read-out: inhibition IC50 vs P. falciparum); 144 ± 12 nM in test [2] (Dd2-C0^119L-131S-259L (pfdhodh mutation), read-out: inhibition IC50 vs P. falciparum); 223 ± 36 nM in test [2] (Dd2-C1^131S-140I-259L (pfdhodh mutation), read-out: inhibition IC50 vs P. falciparum); 0.15 ± 0.023 nM in test [2] (Dd2, read-out: inhibition IC50 vs P. falciparum); 12 ± 2.5 nM in test [2] (Dd2^131S-259L, read-out: inhibition IC50 vs P. falciparum). Besides, the IC50 in test [2] (Dd2^131S, read-out: inhibition IC50 vs P. falciparum) is 0.78 ± 0.081 nM; in test [2] (Dd2^259L, read-out: inhibition IC50 vs P. falciparum), 4.4 ± 0.71 nM; in test [3] (D6, read-out: in vitro IC50 vs P. falciparum) it was 0.028 ± 0.00036 nM; in test [3] (D10yDHODH, read-out: in vitro IC50 vs P. falciparum), > 2500 nM; in test [3] (Dd2, read-out: in vitro IC50 vs P. falciparum) it was 0.042 ± 0.0042 nM; in test [3] (Tm90-C2B (cyt b Y268S, ATV-resistant), read-out: in vitro IC50 vs P. falciparum) it was 4 ± 0.076 nM. Also, the “residual population of hypnozoites” value in test [1] (radical cure mode, highest concentrations tested) is given as 10-20%. Besides, the ED50 in test [4] (P. yoelii ATVrY268S) was 0.31 (0.29–0.34) mg/kg/day and 0.31 mg/kg/day; in test [4] (P. yoelii ELQ-300rI22L), 0.25 (0.21–0.30) mg/kg/day and 0.25 mg/kg/day; in test [4] (P. yoelii wild type), 0.24 (0.20–0.29) mg/kg/day and 0.24 mg/kg/day.

By IC50 is commonly meant the midpoint of a concentration-inhibition curve.
